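Values below derive from 48-hour exposures of cells grown in 96-well plates, with endpoints linearly interpolated between the two concentrations bracketing the appropriate inhibition level. Abbreviation: GI50, concentration required for 50% inhibition of growth.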 Activity calls are given as the source filed them. No stated cut-off is given here; in the data, active = GI50 up to about 1.1 µM and inactive = higher.

The values that follow come from ChEMBL document CHEMBL1201862, “PubChem BioAssay data set” (2004).

Among the test systems are OVCAR-8; DU-145; SR; NCI-H23; SK-MEL-2; NCI-H226; K562; UACC-257; COLO 205; HCT-15; RPMI-8226; ACHN; SW-620; MCF7; SF-295; SK-MEL-28; NCI-H460; SK-OV-3; UO-31; T47D.
Holding throughout (assay): growth of human tumour cells (NCI), 48 h

In the case of `CC(C)(C)CNC(=O)NCn1cc(-c2ccccc2)nn1`, the GI50 in the assay with OVCAR-8 was > 100 µM (inactive); with DU-145, > 100 µM (inactive); with SR, > 100 µM (inactive); with NCI-H23 it was > 100 µM (inactive); in the assay with SK-MEL-2, > 100 µM (inactive); with NCI-H226, 64.6 µM (inactive). Further, the GI50 in the assay on K562 was > 100 µM (inactive); in the assay on UACC-257, > 100 µM (inactive); in the assay with COLO 205, > 100 µM (inactive); with HCT-15, over 100 µM; in the assay on RPMI-8226, > 100 µM (inactive); with ACHN, > 100 µM (inactive). The GI50 in the assay with SW-620, with MCF7, in the assay with SF-295, in the assay on SK-MEL-28 and in the assay on NCI-H460 was > 100 µM (inactive) in each case.
Regarding `CC(C)=CC(C)C(C(O)CCC1(c2ccoc2)OCCO1)S(=O)(=O)c1ccccc1` (stereo unspecified), the GI50 in the assay with OVCAR-8, in the assay with NCI-H23, in the assay on SK-MEL-2, in the assay on NCI-H226, in the assay on SK-OV-3 and with UACC-257 was > 100 µM (inactive) in each case. In addition, the GI50 in the assay on COLO 205 is > 100 µM (inactive); in the assay on HCT-15, over 100 µM; in the assay on RPMI-8226, > 100 µM (inactive); with UO-31 it was > 100 µM (inactive); with ACHN, > 100 µM (inactive); in the assay on SW-620, > 100 µM (inactive). Moreover, the GI50 in the assay on MCF7, with SF-295, with SK-MEL-28, in the assay on T47D and in the assay on NCI-H460 was > 100 µM (inactive) each time.
Turning to `CN(C)CCCNC(=O)c1c(-c2cccnc2)cnc2ccccc12`, the GI50 with OVCAR-8, in the assay on DU-145, with SR, in the assay with NCI-H23, with SK-MEL-2 and with NCI-H226 was > 100 µM (inactive) each time. For the same compound, the GI50 in the assay on SK-OV-3 is > 100 µM (inactive); in the assay with K562, > 100 µM (inactive); in the assay on UACC-257 it was > 100 µM (inactive); in the assay with COLO 205, > 100 µM (inactive); with HCT-15, over 100 µM; in the assay with RPMI-8226, > 100 µM (inactive). In addition, the GI50 in the assay on UO-31, with ACHN, in the assay on SW-620, with MCF7, in the assay with SF-295 and in the assay with SK-MEL-28 was > 100 µM (inactive) throughout. In addition, the GI50 with NCI-H460 was > 100 µM (inactive).
In the case of `CCC1(CCSC(=N)N)C(=O)NC(=O)NC1=O`, the GI50 with OVCAR-8, in the assay with DU-145, with SR, in the assay on NCI-H23, in the assay on SK-MEL-2 and with NCI-H226 was > 100 µM (inactive) each time. For the same compound, the GI50 in the assay on SK-OV-3 was > 100 µM (inactive); in the assay on K562, > 100 µM (inactive); in the assay with UACC-257, > 100 µM (inactive); in the assay on COLO 205, > 100 µM (inactive); in the assay with HCT-15, over 100 µM; with RPMI-8226, > 100 µM (inactive). For the same compound, the GI50 with UO-31, in the assay on ACHN, in the assay with SW-620, with MCF7, in the assay on SF-295 and in the assay on SK-MEL-28 was > 100 µM (inactive) throughout. Moreover, in the assay on NCI-H460, the GI50 is > 100 µM (inactive).
`S=C(c1c[nH]c2ccccc12)N1CCN(Cc2ccccc2)CC1`: the GI50 in the assay with OVCAR-8 is 19.1 µM (inactive); with DU-145, 17.5 µM (inactive); in the assay with SR, 20.2 µM (inactive); with NCI-H23, 19.3 µM (inactive); in the assay on SK-MEL-2, 18.9 µM (inactive); in the assay with NCI-H226, 15 µM (inactive). Also, the GI50 in the assay with SK-OV-3 was 20.7 µM (inactive); in the assay with K562, 27.1 µM (inactive); with UACC-257, 20.7 µM (inactive); in the assay on COLO 205, 16.5 µM (inactive); in the assay on HCT-15, 13.6 µM; in the assay on RPMI-8226, 13 µM (inactive). Besides, the GI50 is 6.61 µM (inactive) with UO-31; 25.5 µM (inactive) in the assay with ACHN; 17.8 µM (inactive) in the assay on SW-620; 22.2 µM (inactive) in the assay on MCF7; 14.8 µM (inactive) with SF-295; 17.3 µM (inactive) in the assay on SK-MEL-28. Further, the GI50 in the assay on NCI-H460 was 25.2 µM (inactive).
Regarding `CC1(C)O[C@H]2OC(CO)C(OS(C)(=O)=O)[C@H]2O1` (stereo partly specified), the GI50 in the assay with OVCAR-8, in the assay on DU-145, in the assay on NCI-H23, in the assay on SK-MEL-2, with UACC-257 and in the assay with COLO 205 was > 100 µM (inactive) throughout. Moreover, the GI50 is over 100 µM in the assay on HCT-15; > 100 µM (inactive) with RPMI-8226; > 100 µM (inactive) with UO-31; > 100 µM (inactive) with ACHN; > 100 µM (inactive) with SW-620; > 100 µM (inactive) with MCF7. For the same compound, the GI50 with SF-295, with SK-MEL-28, with T47D and with NCI-H460 was > 100 µM (inactive) each time.
As for `C=C[C@@H]1OC(=O)O[C@H]1CO`, the GI50 in the assay on OVCAR-8, in the assay on DU-145, in the assay with SR, with NCI-H23, with SK-MEL-2 and in the assay on NCI-H226 was > 100 µM (inactive) throughout. The GI50 is > 100 µM (inactive) in the assay on SK-OV-3; > 100 µM (inactive) with K562; > 100 µM (inactive) with UACC-257; > 100 µM (inactive) in the assay on COLO 205; over 100 µM in the assay on HCT-15; > 100 µM (inactive) with RPMI-8226. Further, the GI50 in the assay on UO-31, in the assay with ACHN, with SW-620, in the assay with MCF7, in the assay on SF-295 and with SK-MEL-28 was > 100 µM (inactive) throughout.
Consider `COc1ccc(-c2nc(SCC(=O)NNC(=S)Nc3ccccc3)[nH]c2-c2ccc(OC)cc2)cc1`, for which the GI50 in the assay with OVCAR-8 is 39.9 µM (inactive); in the assay on DU-145, 28.7 µM (inactive); with NCI-H23, 21.4 µM (inactive); with SK-MEL-2, 18.4 µM (inactive); in the assay with SK-OV-3, 27.2 µM (inactive); in the assay with K562, 23.1 µM (inactive). For the same compound, the GI50 in the assay with UACC-257 is 20.8 µM (inactive); in the assay on COLO 205, 15.3 µM (inactive); in the assay with HCT-15, 22.2 µM; in the assay on UO-31 it was 45.9 µM (inactive); in the assay with ACHN it was 24.5 µM (inactive); with SW-620 it was 26.9 µM (inactive). The GI50 in the assay with MCF7 is 20.5 µM (inactive); in the assay on SF-295, 19.1 µM (inactive); in the assay with SK-MEL-28 it was 24.3 µM (inactive); in the assay on T47D, 16.6 µM (inactive); in the assay on NCI-H460 it was 14.8 µM (inactive).
Turning to `C=C(C)CC1(O[Si](C)(C)C)C(=O)C(OCC)=C1OCC` (stereo unspecified), the GI50 in the assay on OVCAR-8, in the assay with DU-145, with NCI-H23, with SK-MEL-2, with NCI-H226 and in the assay with SK-OV-3 was > 100 µM (inactive) throughout. Also, the GI50 was > 100 µM (inactive) with UACC-257; > 100 µM (inactive) in the assay on COLO 205; over 100 µM with HCT-15; > 100 µM (inactive) in the assay on UO-31; > 100 µM (inactive) in the assay with ACHN; > 100 µM (inactive) in the assay on SW-620. In addition, the GI50 in the assay on MCF7, with SF-295, with SK-MEL-28, in the assay with T47D and in the assay on NCI-H460 was > 100 µM (inactive) throughout.
Consider `C1=CC2C(C3CN(c4ccccc4)N=C13)C1C3C4C=CC21C=CC43` (stereo unspecified), for which the GI50 in the assay with OVCAR-8 is > 95.3 µM (inactive); in the assay with NCI-H23, > 100 µM (inactive); in the assay with SK-MEL-2, > 100 µM (inactive); in the assay with NCI-H226 it was > 100 µM (inactive); in the assay on SK-OV-3 it was > 100 µM (inactive); with K562, > 100 µM (inactive). In addition, the GI50 in the assay on UACC-257 was > 100 µM (inactive); in the assay on COLO 205, > 100 µM (inactive); in the assay on HCT-15 it was over 100 µM; in the assay on RPMI-8226 it was > 100 µM (inactive); in the assay on UO-31 it was > 100 µM (inactive); in the assay on ACHN it was > 100 µM (inactive). Moreover, the GI50 is > 100 µM (inactive) in the assay on SW-620; > 100 µM (inactive) in the assay with MCF7; > 100 µM (inactive) in the assay on SF-295; > 100 µM (inactive) in the assay with SK-MEL-28; 0.189 µM (active) in the assay on T47D; > 100 µM (inactive) in the assay on NCI-H460.
Turning to `CCC1=NC(N/N=C/c2ccco2)=N/C1=C\c1ccco1`, the GI50 in the assay on OVCAR-8, with DU-145, in the assay on SR, with NCI-H23, with SK-MEL-2 and in the assay on NCI-H226 was > 100 µM (inactive) in each case. In addition, the GI50 in the assay with SK-OV-3 is > 100 µM (inactive); in the assay with K562 it was 62.1 µM (inactive); in the assay with UACC-257 it was > 100 µM (inactive); in the assay with COLO 205, > 100 µM (inactive); in the assay on HCT-15, over 100 µM; with RPMI-8226, 40.9 µM (inactive). Further, the GI50 in the assay with UO-31, with ACHN, with SW-620, in the assay on SF-295, with SK-MEL-28 and in the assay with T47D was > 100 µM (inactive) each time. Also, in the assay on NCI-H460, the GI50 was 52 µM (inactive).
